# Results published in patent US20240360178A1, “MACROCYCLIC IMMUNOMODULATORS” (Bristol-Myers Squibb Company, priority 2021, published 2024).
# Positions of bridges follow the written chain, without caps; N, C: chain ends. Non-standard residues stand in square brackets, D forms with d. Residues, ends and D or L forms follow the SMILES beside them. ξ: configuration not given here. Phe(4-COOH) = N[C@@H](Cc1ccc(C(=O)O)cc1)C(=O)O; Bip = N[C@@H](Cc1ccc(-c2ccccc2)cc1)C(=O)O; NMeR = CN[C@@H](CCCNC(=N)N)C(=O)O; NMeF = CN[C@@H](Cc1ccccc1)C(=O)O; ξW = NC(Cc1c[nH]c2ccccc12)C(=O)O; ξR = N=C(N)NCCCC(N)C(=O)O; NMeA = CN[C@@H](C)C(=O)O; Nle = CCCC[C@H](N)C(=O)O; ξE = NC(CCC(=O)O)C(=O)O; Abu = CC[C@H](N)C(=O)O; Sar = CNCC(=O)O
# Target: T1, human PD-1 (Jurkat-PD-1 cells) / PE-labeled human PD-L1-Ig (Homo sapiens, UniProt Q15116)
# T1 construct: expressed in transfected cells; host or cells: Jurkat cell line over-expressing human PD-1
# T1 sequence (Q15116 25-288): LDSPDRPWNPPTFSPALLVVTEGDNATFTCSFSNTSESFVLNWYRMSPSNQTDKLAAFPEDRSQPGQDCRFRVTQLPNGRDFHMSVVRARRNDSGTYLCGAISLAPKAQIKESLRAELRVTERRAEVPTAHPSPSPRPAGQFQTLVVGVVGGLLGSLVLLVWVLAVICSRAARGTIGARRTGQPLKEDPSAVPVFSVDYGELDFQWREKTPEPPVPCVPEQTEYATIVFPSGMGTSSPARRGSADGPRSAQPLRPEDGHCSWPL
# Experiment: Jurkat-PD-1 Cell Binding High-Content Screening Assay (CBA); Jurkat hPD1-PDL1 assay
# Conditions: Jurkat cell line over-expressing human PD-1; PE-labeled PD-L1-Ig 20 nM final; compound incubated 2 hours at 37° C.; read-out: Jurkat HPD1-PDL1 IC50
# How it was run: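 Jurkat-hPD-1 cells; cpd 2 h, 37° C; then PE-PD-L1-Ig 20 nM final in DMEM/10% FCS; high-content imaging read-out.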
row,SMILES,IC50
1,CC(C)C[C@@H]1NC(=O)C(CCC(=O)O)NC(=O)[C@H](Cc2ccccc2)N(C)C(=O)[C@H](C)N(C)C(=O)[C@H](CCCNC(=N)N)NC(=O)[C@H](Cc2ccc(-c3ccccc3)cc2)NC(=O)[C@H](C(C)C)NC(=O)[C@H](Cc2c[nH]c3ccccc23)NC(=O)[C@H](CC(=O)O)NC(=O)[C@H](Cc2ccc(O)cc2)NC(=O)[C@H](Cc2ccccc2)NC(=O)CSC[C@@H](C(=O)NCC(N)=O)NC(=O)[C@H](CO)NC(=O)[C@H](C(C)C)NC1=O (stereo partly shown) [Example 1221] ({CH2CO}-FYDWV[Bip]R[NMeA][NMeF][ξE]LVSCG-NH2; thioether N-14),500 nM
2,CC(C)C[C@@H]1NC(=O)C(CCCNC(=N)N)NC(=O)[C@H](Cc2ccccc2)N(C)C(=O)[C@H](CCC(=O)O)NC(=O)[C@H](CCCNC(=N)N)NC(=O)[C@H](Cc2ccc(-c3ccccc3)cc2)NC(=O)[C@H](C(C)C)NC(=O)[C@H](Cc2c[nH]c3ccccc23)NC(=O)[C@H](CC(=O)O)NC(=O)[C@H](Cc2ccc(O)cc2)NC(=O)[C@H](Cc2ccccc2)NC(=O)CSC[C@@H](C(=O)NCC(N)=O)NC(=O)[C@H](CO)NC(=O)[C@H](C(C)C)NC1=O (stereo partly shown) [Example 1223] ({CH2CO}-FYDWV[Bip]RE[NMeF][ξR]LVSCG-NH2; thioether N-14),990 nM
3,CC(C)C[C@@H]1NC(=O)[C@H](CC(N)=O)NC(=O)CN(C)C(=O)[C@H](C)N(C)C(=O)[C@H](C(C)C)NC(=O)[C@H](Cc2ccc(-c3ccccc3)cc2)NC(=O)[C@H](Cc2ccc(O)cc2)NC(=O)[C@H](Cc2c[nH]c3ccccc23)NC(=O)[C@H](CC(=O)O)NC(=O)[C@H](Cc2ccc(O)cc2)NC(=O)[C@H](Cc2ccccc2)NC(=O)CSC[C@@H](C(=O)NCC(N)=O)NC(=O)[C@H](CO)NC(=O)[C@H](C(C)C)NC1=O [Example 1224] ({CH2CO}-FYDWY[Bip]V[NMeA][Sar]NLVSCG-NH2; thioether N-14),160 nM
4,CCCC[C@@H]1NC(=O)[C@H](C(C)C)NC(=O)[C@H](Cc2ccccc2)N(C)C(=O)[C@H](CC(=O)O)NC(=O)[C@H](CCCNC(=N)N)NC(=O)[C@H](Cc2ccc(-c3ccccc3)cc2)NC(=O)[C@H](C(C)C)NC(=O)[C@H](Cc2c[nH]c3ccccc23)NC(=O)[C@H](CC(=O)O)NC(=O)[C@H](Cc2ccc(O)cc2)NC(=O)[C@H](Cc2ccccc2)NC(=O)CSC[C@@H](C(=O)NCC(N)=O)NC(=O)[C@H](CO)NC(=O)[C@H](C(C)C)NC1=O [Example 1227] ({CH2CO}-FYDWV[Bip]RD[NMeF]V[Nle]VSCG-NH2; thioether N-14),650 nM
5,CC(C)C[C@@H]1NC(=O)[C@H](Cc2c[nH]c3ccccc23)NC(=O)[C@H](CC(=O)O)NC(=O)[C@H](Cc2ccc(O)cc2)NC(=O)[C@H](Cc2ccccc2)NC(=O)CSC[C@@H](C(=O)NCC(N)=O)NC(=O)[C@H](CC(N)=O)NC(=O)[C@H](C(C)C)NC(=O)[C@H](CC(C)C)NC(=O)[C@H](CC(N)=O)NC(=O)CN(C)C(=O)[C@H](C)N(C)C(=O)[C@H](C(C)C)NC(=O)[C@H](Cc2ccc(-c3ccccc3)cc2)NC1=O [Example 1228] ({CH2CO}-FYDWL[Bip]V[NMeA][Sar]NLVNCG-NH2; thioether N-14),720 nM
6,CC(C)C[C@@H]1NC(=O)[C@H](CC(N)=O)NC(=O)CN(C)C(=O)[C@H](CCCNC(=N)N)NC(=O)[C@H](C(C)C)NC(=O)[C@H](Cc2ccc(-c3ccccc3)cc2)NC(=O)[C@H](C(C)C)NC(=O)C(Cc2c[nH]c3ccccc23)NC(=O)[C@H](CC(=O)O)NC(=O)[C@H](Cc2ccc(O)cc2)NC(=O)[C@H](Cc2ccccc2)NC(=O)CSC[C@@H](C(=O)NCC(N)=O)NC(=O)[C@H](CO)NC(=O)[C@H](C(C)C)NC1=O (stereo partly shown) [Example 1229] ({CH2CO}-FYD[ξW]V[Bip]VR[Sar]NLVSCG-NH2; thioether N-14),440 nM
7,CC(C)C[C@@H]1NC(=O)[C@H](C(C)C)NC(=O)CN(C)C(=O)[C@H](C)N(C)C(=O)[C@H](C(C)C)NC(=O)[C@H](Cc2ccc(-c3ccccc3)cc2)NC(=O)[C@H](Cc2ccc(O)cc2)NC(=O)[C@H](Cc2c[nH]c3ccccc23)NC(=O)[C@H](CC(=O)O)NC(=O)[C@H](Cc2ccc(O)cc2)NC(=O)[C@H](Cc2ccccc2)NC(=O)CSC[C@@H](C(=O)NCC(N)=O)NC(=O)[C@H](CO)NC(=O)[C@H](C(C)C)NC1=O [Example 1235] ({CH2CO}-FYDWY[Bip]V[NMeA][Sar]VLVSCG-NH2; thioether N-14),110 nM

# Now from value to molecule:
row,IC50,SMILES
1,60 nM,CC(C)C[C@@H]1NC(=O)C(CCCNC(=N)N)NC(=O)[C@H](Cc2ccccc2)N(C)C(=O)[C@H](C)N(C)C(=O)[C@H](CCCNC(=N)N)NC(=O)[C@H](Cc2ccc(-c3ccccc3)cc2)NC(=O)[C@H](C(C)C)NC(=O)[C@H](Cc2c[nH]c3ccccc23)NC(=O)[C@H](CC(=O)O)NC(=O)[C@H](Cc2ccc(C(=O)O)cc2)NC(=O)[C@H](Cc2ccccc2)NC(=O)CSC[C@@H](C(=O)NCC(N)=O)NC(=O)[C@H](CO)NC(=O)[C@H](C(C)C)NC1=O (stereo partly shown) [Example 1222] ({CH2CO}-F[Phe(4-COOH)]DWV[Bip]R[NMeA][NMeF][ξR]LVSCG-NH2; thioether N-14)
2,960 nM,CC(C)C[C@@H]1NC(=O)[C@H](Cc2c[nH]c3ccccc23)NC(=O)[C@H](CC(=O)O)NC(=O)[C@H](Cc2ccc(O)cc2)NC(=O)[C@H](Cc2ccccc2)NC(=O)CSC[C@@H](C(=O)NCC(N)=O)NC(=O)[C@H](CO)NC(=O)[C@H](C(C)C)NC(=O)[C@H](CC(C)C)NC(=O)[C@H](CO)NC(=O)CN(C)C(=O)[C@H](C)N(C)C(=O)[C@H](C(C)C)NC(=O)[C@H](Cc2ccc(-c3ccccc3)cc2)NC1=O [Example 1225] ({CH2CO}-FYDWL[Bip]V[NMeA][Sar]SLVSCG-NH2; thioether N-14)
3,890 nM,CC(C)C[C@@H]1NC(=O)[C@H](Cc2c[nH]c3ccccc23)NC(=O)[C@H](CC(=O)O)NC(=O)[C@H](Cc2ccc(O)cc2)NC(=O)[C@H](Cc2ccccc2)NC(=O)CSC[C@@H](C(=O)NCC(N)=O)NC(=O)[C@H](CCCNC(=N)N)NC(=O)[C@H](C(C)C)NC(=O)[C@H](CC(C)C)NC(=O)[C@H](CC(N)=O)NC(=O)CN(C)C(=O)[C@H](C)N(C)C(=O)[C@H](C(C)C)NC(=O)[C@H](Cc2ccc(-c3ccccc3)cc2)NC1=O [Example 1226] ({CH2CO}-FYDWL[Bip]V[NMeA][Sar]NLVRCG-NH2; thioether N-14)
4,60 nM,CC(C)C[C@@H]1NC(=O)[C@H](CCCNC(=N)N)NC(=O)CN(C)C(=O)[C@H](C)N(C)C(=O)[C@H](C(C)C)NC(=O)[C@H](Cc2ccc(-c3ccccc3)cc2)NC(=O)[C@H](C(C)C)NC(=O)[C@H](Cc2c[nH]c3ccccc23)NC(=O)[C@H](CC(=O)O)NC(=O)[C@H](Cc2ccc(O)cc2)NC(=O)[C@H](Cc2ccccc2)NC(=O)CSC[C@@H](C(=O)NCC(N)=O)NC(=O)[C@H](CO)NC(=O)[C@H](C(C)C)NC1=O [Example 1230] ({CH2CO}-FYDWV[Bip]V[NMeA][Sar]RLVSCG-NH2; thioether N-14)
5,900 nM,CC(C)C[C@@H]1NC(=O)C(Cc2c[nH]c3ccccc23)NC(=O)[C@H](CC(=O)O)NC(=O)[C@H](Cc2ccc(O)cc2)NC(=O)[C@H](Cc2ccccc2)NC(=O)CSC[C@@H](C(=O)NCC(N)=O)NC(=O)[C@H](CO)NC(=O)[C@H](C(C)C)NC(=O)[C@H](CC(C)C)NC(=O)[C@H](CCCNC(=N)N)NC(=O)CN(C)C(=O)[C@H](C)N(C)C(=O)[C@H](CCCNC(=N)N)NC(=O)[C@H](Cc2ccc(-c3ccccc3)cc2)NC1=O (stereo partly shown) [Example 1231] ({CH2CO}-FYD[ξW]L[Bip]R[NMeA][Sar]RLVSCG-NH2; thioether N-14)
6,330 nM,CC(C)C[C@@H]1NC(=O)[C@H](Cc2c[nH]c3ccccc23)NC(=O)[C@H](CC(=O)O)NC(=O)[C@H](Cc2ccc(O)cc2)NC(=O)[C@H](Cc2ccccc2)NC(=O)CSC[C@@H](C(=O)NCC(N)=O)NC(=O)[C@H](CO)NC(=O)[C@H](C(C)C)NC(=O)[C@H](CC(C)C)NC(=O)[C@H](C(C)C)NC(=O)CN(C)C(=O)[C@H](C)N(C)C(=O)[C@H](CCCNC(=N)N)NC(=O)[C@H](Cc2ccc(-c3ccccc3)cc2)NC1=O [Example 1232] ({CH2CO}-FYDWL[Bip]R[NMeA][Sar]VLVSCG-NH2; thioether N-14)
7,290 nM,CC[C@@H]1NC(=O)[C@H](Cc2ccc(-c3ccccc3)cc2)NC(=O)[C@H](CC(C)C)NC(=O)[C@H](Cc2c[nH]c3ccccc23)NC(=O)[C@H](CC(=O)O)NC(=O)[C@H](Cc2ccc(O)cc2)NC(=O)[C@H](Cc2ccccc2)NC(=O)CSC[C@@H](C(=O)NCC(N)=O)NC(=O)[C@H](CO)NC(=O)[C@H](C(C)C)NC(=O)[C@H](CC(C)C)NC(=O)[C@H](CCCNC(=N)N)NC(=O)CN(C)C(=O)[C@H](CCCNC(=N)N)N(C)C1=O [Example 1234] ({CH2CO}-FYDWL[Bip][Abu][NMeR][Sar]RLVSCG-NH2; thioether N-14)
8,440 nM,CC(C)C[C@@H]1NC(=O)[C@H](CCCNC(=N)N)NC(=O)CN(C)C(=O)[C@H](C)N(C)C(=O)[C@H](C(C)C)NC(=O)[C@H](Cc2ccc(-c3ccccc3)cc2)NC(=O)[C@H](Cc2ccc(O)cc2)NC(=O)[C@H](Cc2c[nH]c3ccccc23)NC(=O)[C@H](CC(=O)O)NC(=O)[C@H](Cc2ccc(O)cc2)NC(=O)[C@H](Cc2ccccc2)NC(=O)CSC[C@@H](C(=O)NCC(N)=O)NC(=O)[C@H](CO)NC(=O)[C@H](C(C)C)NC1=O [Example 1236] ({CH2CO}-FYDWY[Bip]V[NMeA][Sar]RLVSCG-NH2; thioether N-14)
9,520 nM,CC(C)C[C@@H]1NC(=O)[C@H](Cc2c[nH]c3ccccc23)NC(=O)[C@H](CC(=O)O)NC(=O)[C@H](Cc2ccc(O)cc2)NC(=O)[C@H](Cc2ccccc2)NC(=O)CSC[C@@H](C(=O)NCC(N)=O)NC(=O)[C@H](CO)NC(=O)[C@H](C(C)C)NC(=O)[C@H](CC(C)C)NC(=O)[C@H](CCCNC(=N)N)NC(=O)CN(C)C(=O)[C@H](C)N(C)C(=O)[C@H](CC(=O)O)NC(=O)[C@H](Cc2ccc(-c3ccccc3)cc2)NC1=O [Example 1237] ({CH2CO}-FYDWL[Bip]D[NMeA][Sar]RLVSCG-NH2; thioether N-14)
